# Measured values taken from patent US11076597B2, “High stress resistant plant growth regulator and preparation method and use thereof” (SHANGHAI INSTITUTES FOR BIOLOGICAL SCIENCES, CHINESE …, priority 2015, dated 2021).
# Entries after “also recorded” stand apart in the source; their conditions may differ.
# Columns and labels:
# wheat [1] = experiment: Soil drought experiment, wheat; assay type: in vivo; conditions: 100 μM sprayed once every 3 days; 6 days of drought; FIG. 17
# Method: Soybean, cotton and wheat for leaf transpiration experiments were used simultaneously for soil drought experiments, each pot was filled with the same weight of soil to reduce experimental error. All the soybean plants were subjected to a long-day culture at 26° C. 14 days after sowing, watering was stopped and the plants with the consistent growth condition were selected for drought treatment. At the start of the drought, a solution containing 0.1% Tween-20 and 20 μM (+)-ABA/0224/0304 or 0.1% Tween-20 and 0.05% DMSO (control) was sprayed onto the leaf surface once with a spray amount of 4 ml solution/pot. Meanwhile, the position of the pot was changed and re-watered 6 days after the drought, and the photos were taken 1 day after re-watering. The drought experiment of cotton was similar to that of soybeans, watering was stopped 25 days after sowing, the plants with the consistent growth condition were selected for drought treatment. At the start of the drought, a solution containing 0.1% Tween-20 and 20 μM (+)-ABA/0224 or 0.1% Tween-20 and 0.05% DMSO (control) was sprayed onto the leaf surface once with a spray amount of 4 ml solution/pot, and then sprayed once every 3 days. Meanwhile, the position of the pot was changed and re-watered 6 days after the drought, and the photos were taken before re-watering and 1 day after re-watering. […]
# wheat [2] = experiment: Leaf transpiration experiment, wheat; assay type: in vivo; conditions: 100 μM spray 18 days after sowing, one day after spraying; FIG. 16
# Method: ABA synthesis mutant aba2-1 was used in Arabidopsis leaf transpiration experiment. […] Therefore, this mutant is used to exclude the effect of endogenous ABA on the transpiration experiment. The plants were sprayed with a solution containing 0.05% tween-20 and corresponding concentrations of (+)-ABA/0224/0304/0706/0715/0428 or 0.05% Tween-20 and 0.05% DMSO (control) after three weeks of continuous watering with an amount of 1.2 ml/pot. Leaf transpiration experiments of soybeans were conducted at 26° C. with long-day lighting and soybeans were sprayed with a solution containing 0.1% tween-20 and 20 μM (+)-ABA/0224/0304 compound or 0.1% Tween-20 and 0.05% DMSO (control) 14 days after sowing with an amount of 4 ml/pot; the leaf transpiration experiments of cottons were sprayed with a solution containing 0.1% tween-20 and 20 μM (+)-ABA/0224 compound or 0.1% Tween-20 and 0.05% DMSO, respectively, 25 days after sowing with an amount of 4 ml/pot; the leaf transpiration experiments of wheats were sprayed with a solution containing 0.1% tween-20 and 100 μM (+)-ABA/0224 compound or 0.1% Tween-20 and 0.05% DMSO (control) 18 days after sowing with an amount of 6 ml/pot. […]
# In this experiment, the temperature change of leaf surface was observed and recorded by an infrared camera, thus reflecting the strength of plant transpiration. […]
# [3] = target: T1, PYR1 receptor-HAB1 protein phosphatase complex (Arabidopsis thaliana, UniProt O49686); experiment: AlphaScreen assay, PYR1 receptor binding to HAB1; assay type: biochemical; conditions: fraction of the EC50 of ABA; FIG. 2a, 2h
# T1 construct: made in house; host or cells: E. coli BL21 (DE3)
# T1 sequence (O49686 1-191): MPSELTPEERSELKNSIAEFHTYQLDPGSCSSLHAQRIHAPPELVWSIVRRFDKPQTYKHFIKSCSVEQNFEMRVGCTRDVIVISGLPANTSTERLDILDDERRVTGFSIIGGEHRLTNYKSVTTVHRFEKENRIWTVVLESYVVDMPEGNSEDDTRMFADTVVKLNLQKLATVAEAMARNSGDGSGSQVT
# T1 sequence (Q9CAJ0 172-511 partner limits assumed): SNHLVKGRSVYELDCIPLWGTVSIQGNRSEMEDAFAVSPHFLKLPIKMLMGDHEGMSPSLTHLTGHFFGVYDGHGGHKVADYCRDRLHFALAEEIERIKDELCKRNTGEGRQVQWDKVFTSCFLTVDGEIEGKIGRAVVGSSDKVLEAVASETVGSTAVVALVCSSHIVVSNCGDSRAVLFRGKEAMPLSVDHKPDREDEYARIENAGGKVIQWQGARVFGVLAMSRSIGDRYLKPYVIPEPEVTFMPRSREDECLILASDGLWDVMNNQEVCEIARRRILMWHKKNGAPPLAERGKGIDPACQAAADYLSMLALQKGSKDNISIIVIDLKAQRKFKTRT
# Method: (§1) The AlphaScreen kit (available from Perkin Elmer) was used, and the method was as follows: a 10× buffer (50 mM MOPS, pH 7.4, 50 mM NaF, 50 mM CHAPS, 0.1 mg/ml bovine serum albumin) diluted at 1:10, each of 100 nM HAB1 with Biotin tag sequence and PYR1/PYL1/PYL2/PYL7/GmPYL6/OsPYL2 protein with dual tags of 6×His and SUMO sequences, corresponding concentrations of (+)-ABA/0224/0304/0706/0708/0713/0715/0428/NC0F4, and 5 μg/ml donor beads and acceptor beads (available from Perkin Elmer) were contained in 150 μl of experimental system. After incubating for 1.5 hours at room temperature in the dark, it was placed into an Envision Plate Reader (available from Perkin Elmer) under the programmed AlphaScreen procedure for readings.
# (§2) AlphaScreen technology was used to test the ability of the compounds of the present invention to promote PYL receptor binding to PP2C protein phosphatase (HAB1).
# [4] = target: T2, PYL1 receptor-HAB1 protein phosphatase complex (Arabidopsis thaliana, UniProt Q8VZS8); experiment: AlphaScreen assay, PYL1 receptor binding to HAB1; assay type: biochemical; conditions: fraction of the EC50 of ABA; FIG. 2b
# T2 construct: made in house; host or cells: E. coli BL21 (DE3)
# T2 sequence (Q8VZS8 36-211): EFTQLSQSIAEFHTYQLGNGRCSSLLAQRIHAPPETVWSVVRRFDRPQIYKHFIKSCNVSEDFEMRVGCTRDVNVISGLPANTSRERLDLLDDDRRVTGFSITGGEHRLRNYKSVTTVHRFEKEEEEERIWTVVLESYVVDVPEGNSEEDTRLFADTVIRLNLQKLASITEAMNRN
# T2 sequence (Q9CAJ0 172-511 partner limits assumed): T1 sequence (Q9CAJ0 172-511 partner limits assumed)
# Method: as §1, §2
SMILES,growth after drought (wheat [1]),leaf temperature versus DMSO control (leaf transpiration) (wheat [2]),EC50 value with PYR1 receptor-HAB1 complex as fraction of that of ABA [3],EC50 value with PYL1 receptor-HAB1 complex as fraction of that of ABA [4]
"CC1=CC(=O)CC(C)(C)[C@@]1(O)/C=C/C(C)=C\C(=O)O [ABA, Abscisic Acid, reference compound]",significantly better than that in the control group (DMSO); also recorded: remained upright,still significant higher than that of plants in DMSO-sprayed control group,,
CCCN1C(=O)OC(C)c2cc(NS(=O)(=O)Cc3c(F)c(F)c(C)c(F)c3F)ccc21 (centres unmarked) [Compound 0224],significantly better than that in the control group (DMSO); also recorded: remained upright,significantly reduce the transpiration rate of the wheat leaf; also recorded: still significant higher than that of plants in DMSO-sprayed control group,1/40,⅛
CCCN1C(=O)OC(C)(C)c2cc(NS(=O)(=O)Cc3c(F)c(F)c(C)c(F)c3F)ccc21 [Compound 0304],,,1/24,1/7
